Data taken from US20260001928A1 (CORTERIA PHARMACEUTICALS, priority 2022, published 2026).
*1 amine or outer side, *2 acyl side, *3 side chain or, on linkers, in order; H or OH if unused. Where a SMILES comes first, the peptide text is derived from it. Side-chain parts run from the residue outwards. [ ]: non-standard residue; d: D form. The star is where a group is joined. C20 diacid = O=C(O)CCCCCCCCCCCCCCCCCCC(=O)*; C16 diacid = O=C(O)CCCCCCCCCCCCCCC(=O)*; γGlu = O=C(O)[C@H](CCC(=O)[*:2])N[*:1]; NMeI = CC[C@H](C)[C@H](NC)C(=O)O; AEEA = NCCOCCOCC(=O)O; Aib = CC(C)(N)C(=O)O

Test system: human LAD2 cells
Type: cell-based
Procedure, shortened: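 Mast cell degranulation: cells exposed to peptides for 30 min at final concentrations from 50, 100 or 300 down to 0.1 or 0.001 μM, with 0.5% DMSO where used, in biological duplicates. β-hexosaminidase release was read with a fluorogenic 4-methylumbelliferyl substrate as supernatant/(supernatant + Triton-lysed pellet) × 100. EC50 came from a 4-parameter sigmoidal fit.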

Row | Compound | EC50
1 | CC[C@H](C)[C@H](NC(C)=O)C(=O)N[C@H](C(=O)N[C@@H](CC(C)C)C(=O)N[C@@H](CO)C(=O)N[C@@H](CC(C)C)C(=O)N[C@@H](CC(=O)O)C(=O)N[C@@H](C(=O)N1CCC[C@H]1C(=O)N[C@H](C(=O)N[C@@H](CCCCN)C(=O)N[C@@H](CC(C)C)C(=O)N[C@@H](CCCCNC(=O)COCCOCCNC(=O)COCCOCCNC(=O)CC[C@H](NC(=O)CCCCCCCCCCCCCCCCCCC(=O)O)C(=O)O)C(=O)N[C@@H](CCCCN)C(=O)N[C@H](C(=O)N[C@@H](CC(C)C)C(=O)N[C@@H](CC(C)C)C(=O)N[C@@H](CCC(=O)O)C(=O)N[C@@H](CCC(N)=O)C(=O)N[C@@H](CCC(=O)O)C(=O)N[C@@H](CCCCN)C(=O)N[C@@H](CCC(N)=O)C(=O)N[C@@H](CCCCN)C(=O)N[C@@H](CCCCN)C(=O)N[C@@H](CCC(N)=O)C(=O)N[C@@H](CCCNC(=N)N)C(=O)N[C@@H](CCC(=O)O)C(=O)N[C@@H](CCC(N)=O)C(=O)N[C@@H](C)C(=O)N[C@@H](CCC(=O)O)C(=O)N[C@H](C(=O)N[C@@H](CC(N)=O)C(=O)NC(C)(C)C(=O)N[C@@H](CCC(N)=O)C(=O)N[C@H](C(=O)N[C@@H](CC(C)C)C(=O)N[C@@H](C)C(=O)N[C@@H](CCC(N)=O)C(=O)N[C@H](C(N)=O)C(C)C)[C@@H](C)CC)[C@@H](C)O)[C@@H](C)CC)[C@@H](C)CC)C(C)C)C(C)C [Cmpd 238] (Ac-IVLSLD[dV]PIKLK([AEEA-AEEA-γGlu-C20 diacid])KILLEQEKQKKQREQAETN[Aib]QILAQV-NH2) | 36.7 µM
2 | CC[C@H](C)[C@H](NC)C(=O)N[C@H](C(=O)N[C@@H](CC(C)C)C(=O)N[C@@H](CO)C(=O)N[C@@H](CC(C)C)C(=O)N[C@@H](CC(=O)O)C(=O)N[C@@H](C(=O)N1CCC[C@H]1C(=O)N[C@H](C(=O)N[C@@H](CCCCN)C(=O)N[C@@H](CC(C)C)C(=O)N[C@@H](CCCCNC(=O)CC[C@H](NC(=O)CC[C@H](NC(=O)CCCCCCCCCCCCCCCCCCC(=O)O)C(=O)O)C(=O)O)C(=O)N[C@@H](CCCCN)C(=O)N[C@H](C(=O)N[C@@H](CC(C)C)C(=O)N[C@@H](CC(C)C)C(=O)N[C@@H](CCC(=O)O)C(=O)N[C@@H](CCC(N)=O)C(=O)N[C@@H](CCC(=O)O)C(=O)N[C@@H](CCCCN)C(=O)N[C@@H](CCC(N)=O)C(=O)N[C@@H](CCCCN)C(=O)N[C@@H](CCC(=O)O)C(=O)N[C@@H](CCC(N)=O)C(=O)N[C@@H](CCCNC(=N)N)C(=O)N[C@@H](CCC(=O)O)C(=O)N[C@@H](CCC(N)=O)C(=O)N[C@@H](C)C(=O)N[C@@H](CCC(=O)O)C(=O)N[C@H](C(=O)N[C@@H](CC(N)=O)C(=O)NC(C)(C)C(=O)N[C@@H](CCC(N)=O)C(=O)N[C@H](C(=O)N[C@@H](CC(C)C)C(=O)N[C@@H](C)C(=O)N[C@@H](CCC(N)=O)C(=O)N[C@H](C(N)=O)C(C)C)[C@@H](C)CC)[C@@H](C)O)[C@@H](C)CC)[C@@H](C)CC)C(C)C)C(C)C [Cmpd 242] (H-[NMeI]VLSLD[dV]PIKLK([γGlu-γGlu-C20 diacid])KILLEQEKQKEQREQAETN[Aib]QILAQV-NH2) | > 300 µM
3 | CC[C@H](C)[C@H](NC(C)=O)C(=O)N[C@H](C(=O)N[C@@H](CC(C)C)C(=O)N[C@@H](CO)C(=O)N[C@@H](CC(C)C)C(=O)N[C@@H](CC(=O)O)C(=O)N[C@@H](C(=O)N1CCC[C@H]1C(=O)N[C@H](C(=O)N[C@@H](CCCCN)C(=O)N[C@@H](CC(C)C)C(=O)N[C@@H](CCCCNC(=O)CC[C@H](NC(=O)CCCCCCCCCCCCCCC(=O)O)C(=O)O)C(=O)N[C@@H](CCCCN)C(=O)N[C@H](C(=O)N[C@@H](CC(C)C)C(=O)N[C@@H](CC(C)C)C(=O)N[C@@H](CCC(=O)O)C(=O)N[C@@H](CCC(N)=O)C(=O)N[C@@H](CCC(=O)O)C(=O)N[C@@H](CCCCN)C(=O)N[C@@H](CCC(N)=O)C(=O)N[C@@H](C)C(=O)N[C@@H](CCCCN)C(=O)N[C@@H](CCC(N)=O)C(=O)N[C@@H](CCCNC(=N)N)C(=O)N[C@@H](CCC(=O)O)C(=O)N[C@@H](CCC(N)=O)C(=O)N[C@@H](C)C(=O)N[C@@H](CCC(=O)O)C(=O)N[C@H](C(=O)N[C@@H](CC(N)=O)C(=O)NC(C)(C)C(=O)N[C@@H](CCC(N)=O)C(=O)N[C@H](C(=O)N[C@@H](CC(C)C)C(=O)N[C@@H](C)C(=O)N[C@@H](CCC(N)=O)C(=O)N[C@H](C(N)=O)C(C)C)[C@@H](C)CC)[C@@H](C)O)[C@@H](C)CC)[C@@H](C)CC)C(C)C)C(C)C [Cmpd 166] (Ac-IVLSLD[dV]PIKLK([γGlu-C16 diacid])KILLEQEKQAKQREQAETN[Aib]QILAQV-NH2) | > 100 µM
4 | CC[C@H](C)[C@H](NC(C)=O)C(=O)N[C@H](C(=O)N[C@@H](CC(C)C)C(=O)N[C@@H](CO)C(=O)N[C@@H](CC(C)C)C(=O)N[C@@H](CC(=O)O)C(=O)N[C@@H](C(=O)N1CCC[C@H]1C(=O)N[C@H](C(=O)N[C@@H](CCCCN)C(=O)N[C@@H](CC(C)C)C(=O)N[C@@H](CCCCNC(=O)CC[C@H](NC(=O)CCCCCCCCCCCCCCC(=O)O)C(=O)O)C(=O)N[C@@H](CCCCN)C(=O)N[C@H](C(=O)N[C@@H](CC(C)C)C(=O)N[C@@H](CC(C)C)C(=O)N[C@@H](CCC(=O)O)C(=O)N[C@@H](CCC(N)=O)C(=O)N[C@@H](CCC(=O)O)C(=O)N[C@@H](CCCCN)C(=O)N[C@@H](CCC(N)=O)C(=O)N[C@@H](CCCCN)C(=O)N[C@@H](CCC(=O)O)C(=O)N[C@@H](CCC(N)=O)C(=O)N[C@@H](CCCNC(=N)N)C(=O)N[C@@H](CCC(=O)O)C(=O)N[C@@H](CCC(N)=O)C(=O)N[C@@H](C)C(=O)N[C@@H](CCC(=O)O)C(=O)N[C@H](C(=O)N[C@@H](CC(N)=O)C(=O)NC(C)(C)C(=O)N[C@@H](CCC(N)=O)C(=O)N[C@H](C(=O)N[C@@H](CC(C)C)C(=O)N[C@@H](C)C(=O)N[C@@H](CCC(N)=O)C(=O)N[C@H](C(N)=O)C(C)C)[C@@H](C)CC)[C@@H](C)O)[C@@H](C)CC)[C@@H](C)CC)C(C)C)C(C)C [Cmpd 168] (Ac-IVLSLD[dV]PIKLK([γGlu-C16 diacid])KILLEQEKQKEQREQAETN[Aib]QILAQV-NH2) | > 300 µM
5 | CC[C@H](C)[C@H](NC(C)=O)C(=O)N[C@H](C(=O)N[C@@H](CC(C)C)C(=O)N[C@@H](CO)C(=O)N[C@@H](CC(C)C)C(=O)N[C@@H](CC(=O)O)C(=O)N[C@@H](C(=O)N1CCC[C@H]1C(=O)N[C@H](C(=O)N[C@@H](CCCCN)C(=O)N[C@@H](CC(C)C)C(=O)N[C@@H](CCCCNC(=O)CC[C@H](NC(=O)CCCCCCCCCCCCCCC(=O)O)C(=O)O)C(=O)N[C@@H](CCCCN)C(=O)N[C@H](C(=O)N[C@@H](CC(C)C)C(=O)N[C@@H](CC(C)C)C(=O)N[C@@H](CCC(=O)O)C(=O)N[C@@H](CCC(N)=O)C(=O)N[C@@H](CCC(=O)O)C(=O)N[C@@H](CCCCN)C(=O)N[C@@H](CCC(N)=O)C(=O)N[C@@H](CCCCN)C(=O)N[C@@H](C)C(=O)N[C@@H](CCC(N)=O)C(=O)N[C@@H](CCCNC(=N)N)C(=O)N[C@@H](CCC(=O)O)C(=O)N[C@@H](CCC(N)=O)C(=O)N[C@@H](C)C(=O)N[C@@H](CCC(=O)O)C(=O)N[C@H](C(=O)N[C@@H](CC(N)=O)C(=O)NC(C)(C)C(=O)N[C@@H](CCC(N)=O)C(=O)N[C@H](C(=O)N[C@@H](CC(C)C)C(=O)N[C@@H](C)C(=O)N[C@@H](CCC(N)=O)C(=O)N[C@H](C(N)=O)C(C)C)[C@@H](C)CC)[C@@H](C)O)[C@@H](C)CC)[C@@H](C)CC)C(C)C)C(C)C [Cmpd 161] (Ac-IVLSLD[dV]PIKLK([γGlu-C16 diacid])KILLEQEKQKAQREQAETN[Aib]QILAQV-NH2) | > 50 µM
6 | CC[C@H](C)[C@H](NC(C)=O)C(=O)N[C@H](C(=O)N[C@@H](CC(C)C)C(=O)N[C@@H](CO)C(=O)N[C@@H](CC(C)C)C(=O)N[C@@H](CC(=O)O)C(=O)N[C@@H](C(=O)N1CCC[C@H]1C(=O)N[C@H](C(=O)N[C@@H](CCCCN)C(=O)N[C@@H](CC(C)C)C(=O)N[C@@H](CCCCNC(=O)CC[C@H](NC(=O)CCCCCCCCCCCCCCCCCCC(=O)O)C(=O)O)C(=O)N[C@@H](CCCCN)C(=O)N[C@H](C(=O)N[C@@H](CC(C)C)C(=O)N[C@@H](CC(C)C)C(=O)N[C@@H](CCC(=O)O)C(=O)N[C@@H](CCC(N)=O)C(=O)N[C@@H](CCC(=O)O)C(=O)N[C@@H](CCCCN)C(=O)N[C@@H](CCC(N)=O)C(=O)N[C@@H](CCCCN)C(=O)N[C@@H](CCC(=O)O)C(=O)N[C@@H](CCC(N)=O)C(=O)N[C@@H](CCCNC(=N)N)C(=O)N[C@@H](CCC(=O)O)C(=O)N[C@@H](CCC(N)=O)C(=O)N[C@@H](C)C(=O)N[C@@H](CCC(=O)O)C(=O)N[C@H](C(=O)N[C@@H](CC(N)=O)C(=O)NC(C)(C)C(=O)N[C@@H](CCC(N)=O)C(=O)N[C@H](C(=O)N[C@@H](CC(C)C)C(=O)N[C@@H](C)C(=O)N[C@@H](CCC(N)=O)C(=O)N[C@H](C(N)=O)C(C)C)[C@@H](C)CC)[C@@H](C)O)[C@@H](C)CC)[C@@H](C)CC)C(C)C)C(C)C [Cmpd 213] (Ac-IVLSLD[dV]PIKLK([γGlu-C20 diacid])KILLEQEKQKEQREQAETN[Aib]QILAQV-NH2) | > 300 µM
7 | CC[C@H](C)[C@H](NC(C)=O)C(=O)N[C@H](C(=O)N[C@@H](CC(C)C)C(=O)N[C@@H](CO)C(=O)N[C@@H](CC(C)C)C(=O)N[C@@H](CC(=O)O)C(=O)N[C@@H](C(=O)N1CCC[C@H]1C(=O)N[C@H](C(=O)N[C@@H](CCCCN)C(=O)N[C@@H](CC(C)C)C(=O)N[C@@H](CCCCNC(=O)CC[C@H](NC(=O)CC[C@H](NC(=O)CCCCCCCCCCCCCCCCCCC(=O)O)C(=O)O)C(=O)O)C(=O)N[C@@H](CCCCN)C(=O)N[C@H](C(=O)N[C@@H](CC(C)C)C(=O)N[C@@H](CC(C)C)C(=O)N[C@@H](CCC(=O)O)C(=O)N[C@@H](CCC(N)=O)C(=O)N[C@@H](CCC(=O)O)C(=O)N[C@@H](CCCCN)C(=O)N[C@@H](CCC(N)=O)C(=O)N[C@@H](CCCCN)C(=O)N[C@@H](CCCCN)C(=O)N[C@@H](CCC(N)=O)C(=O)N[C@@H](CCCNC(=N)N)C(=O)N[C@@H](CCC(=O)O)C(=O)N[C@@H](CCC(N)=O)C(=O)N[C@@H](C)C(=O)N[C@@H](CCC(=O)O)C(=O)N[C@H](C(=O)N[C@@H](CC(N)=O)C(=O)NC(C)(C)C(=O)N[C@@H](CCC(N)=O)C(=O)N[C@H](C(=O)N[C@@H](CC(C)C)C(=O)N[C@@H](C)C(=O)N[C@@H](CCC(N)=O)C(=O)N[C@H](C(N)=O)C(C)C)[C@@H](C)CC)[C@@H](C)O)[C@@H](C)CC)[C@@H](C)CC)C(C)C)C(C)C [Cmpd 243] (Ac-IVLSLD[dV]PIKLK([γGlu-γGlu-C20 diacid])KILLEQEKQKKQREQAETN[Aib]QILAQV-NH2) | > 300 µM
